The values below come from PubChem BioAssay (NCI).

Each structure is given as a SMILES string.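 Exposure lasted 48 hours, with cells grown in 96-well plates and compounds tested at five concentrations. Here, GI50 denotes the concentration required for 50% inhibition of growth. Definition used: TGI = concentration required for complete inhibition of growth.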 Bounds are passed on as bounds.

Common to all, as to test: DTP human tumour cell line panel, 48 h
Test [1] concerns SW-620 colon.
Test [2] deals with DU-145 prostate.
Test [3] concerns ACHN renal.
In test [4] the test system is MDA-MB-435.
Test [5] concerns HOP-62 NSCLC.
Test [6] deals with UO-31 renal.
Test [7] relates to NCI-H460 lung.
In test [8] the test system is MALME-3M melanoma.
Test [9] concerns MDA-MB-231 breast.
The test system of test [10] is TK-10 renal.
The subject of test [11] is A498 renal.
Test [12] deals with HOP-92 NSCLC.

Consider `N#Cc1c(NC(=S)NC(=O)c2ccccc2)nc2c(c1-c1ccccc1)CCC2`, for which the TGI in test [1], in test [2], in [3], in test [4], in test [5] and in [6] was greater than 100 µM throughout. Besides, the TGI in test [7], in test [8], in [9] and in test [10] was greater than 100 µM each time.
On to `O=C(Nc1ccc(I)cc1C(=O)NCCO)c1cccs1`, for which the TGI in test [1], in test [3], in test [4], in test [5], in test [6] and in test [7] was greater than 100 µM each time.
As for `CCn1cc(C(c2ccc(Cl)cc2)n2ccnc2)c2cc(Br)ccc21` (stereo not given), the TGI was 30.3 µM in test [2]; 25.9 µM in test [3]; 27 µM in test [4]; 28.6 µM in test [5]; 27 µM in test [11]; 20.1 µM in test [6]. Also, the TGI in test [12] amounted to 19.4 µM; in test [8] it was 32.7 µM; in test [9], 35.8 µM; in [10] it was 33.7 µM.
Consider `CSC1=Nc2ccccc2N(C)c2c1c(-c1ccccc1)nn2C`, for which the TGI in test [1], in test [2], in test [3], in test [4], in test [12] and in test [7] was greater than 100 µM each time. Besides, the TGI in test [9] and in test [10] was greater than 100 µM throughout.
For `O=[Se]([O-])c1ccccc1.O=[Se]([O-])c1ccccc1.[OH3+].[OH3+].[Pt+2]`, the GI50 in test [1] is 5.24 µM; in test [5], 18.5 µM; in test [11], 16.5 µM; in [6] it was 5.78 µM; in test [12] it was 14.4 µM; in [7], 18.6 µM. For the same molecule, the GI50 in [8] was 16.5 µM. Further, the TGI in test [1] was 25.2 µM; in test [5], 31.2 µM; in [11], greater than 48.8 µM; in test [6], 46.2 µM; in [12] it was 40.7 µM; in test [7] it was greater than 86.1 µM. Also, the TGI in test [8] is 54.2 µM.
For the molecule `COC1OC(=O)[C@H]2O[N+]([O-])=C(C)[C@@H]12` (stereo not given in full), the TGI in test [1], in [5], in test [11], in test [6], in test [12] and in test [7] was greater than 100 µM in each case. For the same molecule, the TGI in test [8] is greater than 100 µM.
